Molecular target: CC3396
Type: biochemical, Caulobacter vibrioides (Caulobacter crescentus)

| Structure (SMILES) | Ki [nM] |
| --- | --- |
| Nc1nc2c(ncn2[C@@H]2O[C@@H]3CO[P@@](O)(=S)O[C@H]4[C@@H](O)[C@H](n5cnc6c(=O)[nH]c(N)nc65)O[C@@H]4CO[P@@](O)(=S)O[C@H]3[C@H]2O)c(=O)[nH]1 [c-(RPRP)-di-Gps] | ~480 |
| Nc1nc2c(ncn2[C@@H]2O[C@@H]3CO[P@@](O)(=S)O[C@H]4[C@@H](O)[C@H](n5cnc6c(=O)[nH]c(N)nc65)O[C@@H]4CO[P@](O)(=S)O[C@H]3[C@H]2O)c(=O)[nH]1 [c-(RPSP)-di-Gps] | ~820 |
